Reference: publication PMC2630410 (Molecular and biochemical parasitology, 2008)
Like-named read-outs stand apart in the source and are kept apart here.

Key:
[1] = target: T1, TbNT11.1 (Trypanosoma brucei brucei, UniProt Q38CR7); format: cell-based; settings: for TbNT11.1-mediated uptake of radiolabeled substrate: 1 μM [3H]substrate, Δlmant3[pTbNT11] line
[2] = target: T1, TbNT11.1; format: cell-based; settings: for Inhibition of [3H]hypoxanthine uptake by TbNT11.1 (in words): 1 μM [3H]hypoxanthine, graded concentrations of inhibitor; for Inhibition of [3H]hypoxanthine uptake by nucleosides: 1 mM nucleoside, Δlmant3[pTbNT11.1] parasites; for Inhibition of [3H]hypoxanthine uptake by nucleosides / Inhibition of hypoxanthine uptake by pyrimidine nucleobases: data not shown; for Inhibition of hypoxanthine uptake by pyrimidine nucleobases: concentrations up to 1 mM
[3] = target: T2, TbNT12.1 (Trypanosoma brucei brucei, UniProt Q57TQ7); assay: Uptake of adenine and pentamidine by TbNT12.1 expressed in Xenopus oocytes; format: cell-based; settings: for Transport by TbNT12.1 (in words): versus water-injected oocytes
T2 sequence (Q57TQ7 1-462): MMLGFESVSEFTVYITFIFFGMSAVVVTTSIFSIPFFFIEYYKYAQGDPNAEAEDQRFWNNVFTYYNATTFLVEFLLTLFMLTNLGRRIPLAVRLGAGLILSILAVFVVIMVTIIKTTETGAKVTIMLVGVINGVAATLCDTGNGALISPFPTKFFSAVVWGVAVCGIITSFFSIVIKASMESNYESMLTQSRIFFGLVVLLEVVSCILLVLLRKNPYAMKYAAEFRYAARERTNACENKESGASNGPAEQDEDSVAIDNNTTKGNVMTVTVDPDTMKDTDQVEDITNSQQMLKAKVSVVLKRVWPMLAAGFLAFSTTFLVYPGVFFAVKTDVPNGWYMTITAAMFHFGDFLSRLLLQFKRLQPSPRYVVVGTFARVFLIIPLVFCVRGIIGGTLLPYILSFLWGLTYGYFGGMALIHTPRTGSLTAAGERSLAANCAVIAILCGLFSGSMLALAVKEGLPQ

[4] = tested on: TbNT12.2; assay: Uptake of adenine and pentamidine by TbNT12.2 expressed in Xenopus oocytes; format: cell-based, Trypanosoma brucei; settings: for Transport by TbNT12.2 (in words): Xenopus oocytes, versus water-injected oocytes
[5] = tested on: PPT1; assay: Inhibition of [14C]pentamidine uptake by PF trypanosomes; format: cell-based, Trypanosoma brucei; settings: 1 mM nucleobase, 25 μM [14C]pentamidine; data not shown
[6] = target: T1, TbNT11.1; assay: Inhibition of [3H]adenine uptake by TbNT11.1 in Δlmant3[pTbNT11.1] parasites; format: cell-based
[7] = target: T1, TbNT11.1; format: cell-based; settings: oocytes expressing TbNT11.1; data not shown
[8] = target: T1, TbNT11.1; assay: [3H]adenosine uptake by Δldnt1/Δldnt2[pTbNT11.1] line; format: cell-based; settings: 0.5 μM or 100 μM [3H]adenosine; data not shown
[9] = target: T1, TbNT11.1; format: cell-based; settings: for Inhibition of [14C]pentamidine uptake by unlabeled nucleobase: 1 mM unlabeled substrate, TbNT11-expressing oocytes
[10] = target: T2, TbNT12.1; assay: Adenine uptake by TbNT12.1 expressed in Δlmant3 promastigotes; format: cell-based; settings: 50 μM adenine, n=3
[11] = tested on: TbNT12.2; assay: Adenine uptake by TbNT12.2 expressed in Δlmant3 promastigotes; format: cell-based, Trypanosoma brucei; settings: 50 μM adenine, n=3
[12] = tested on: Δlmant3 parasites; assay: Background adenine uptake by Δlmant3 parasites; format: cell-based, Leishmania major; settings: 50 μM adenine
[13] = tested on: O=c1[nH]cnc2nc[nH]c12; assay: cells, lysate or membranes; settings: other: substrate saturation, 1 min, Δlmant3[pTbNT11.1], n=3
[14] = target: TbNT8.1 (Trypanosoma brucei brucei, UniProt Q386F1); format: cell-based; settings: 12.5 μM [3H]hypoxanthine
[15] = substrate: N=C(N)c1ccc(OCCCCCOc2ccc(C(=N)N)cc2)cc1; assay: Uptake of adenine and pentamidine by TbNT12.1 expressed in Xenopus oocytes; format: cell-based, Trypanosoma brucei; settings: other: Xenopus oocytes, n=3; 16.0 °C
[16] = transport rates linear from 0–1 mM adenine

Nc1nc2nc[nH]c2c(=O)[nH]1 [guanine]
TbNT11.1-mediated uptake of radiolabeled substrate [1]: not a substrate | Inhibition of [3H]hypoxanthine uptake by TbNT11.1 (in words) [2]: an inhibitor | Transport by TbNT12.1 (in words) ([3]; Xenopus oocytes): did not mediate the uptake | Transport by TbNT12.2 (in words) [4]: did not mediate the uptake | Inhibition of [14C]pentamidine uptake by PFs [5]: did not inhibit

Nc1nc(N)nc(Nc2ccc([As]3SCC(CO)S3)cc2)n1 (centres unmarked) [melarsoprol]
EC50 [6]: 12.9 µM | Melarsoprol uptake over background of water injected oocytes [7]: no uptake

OC[C@H]1O[C@@H](n2cnc3c(O)nc(O)nc32)[C@H](O)[C@@H]1O [xanthosine]
Inhibition of [3H]hypoxanthine uptake by nucleosides [2]: failure

Nc1ncnc2c1ncn2[C@@H]1O[C@H](CO)[C@@H](O)[C@H]1O [adenosine]
Inhibition of [3H]hypoxanthine uptake by TbNT11.1 (in words) [2]: an inhibitor | Uptake of [3H]adenosine [8]: did not take up

O=c1[nH]cnc2c1ncn2[C@@H]1O[C@H](CO)[C@@H](O)[C@H]1O [inosine]
Inhibition of [3H]hypoxanthine uptake by nucleosides [2]: failure

Nc1ncnc2[nH]cnc12 [adenine]
TbNT11.1-mediated uptake of radiolabeled substrate [1]: mediated uptake | Ki [2]: 8 µM | Inhibition of [14C]pentamidine uptake by unlabeled nucleobase ([9]; 50 μM [14C]pentamidine): very poor inhibitor | Transport by TbNT12.1 (in words) ([3]; Xenopus oocytes): transport | Affinity of TbNT12.1 for substrate [3, 16]: low | Transport by TbNT12.2 (in words) [4]: transport | Affinity of TbNT12.2 for substrate [4, 16]: low | Uptake of adenine, TbNT12.1 in Δlmant3 promastigotes [10]: 103 ± 2 pmol/min/10^7 parasites | Uptake of adenine, TbNT12.2 in Δlmant3 promastigotes [11]: 86.5 ± 1.1 pmol/min/10^7 parasites | Background uptake of adenine in Δlmant3 parasites [12]: 41.8 ± 1.4 pmol/min/10^7 parasites | Inhibition of [14C]pentamidine uptake by PFs [5]: did not inhibit

O=c1[nH]c(=O)c2nc[nH]c2[nH]1 [xanthine]
TbNT11.1-mediated uptake of radiolabeled substrate [1]: mediated uptake | Km ([1]; read-out: Km for uptake by TbNT11.1, substrate saturation, 1 min, Δlmant3[pTbNT11.1], n=3): 7.2 ± 2.3 µM | Inhibition of [14C]pentamidine uptake by unlabeled nucleobase ([9]; 50 μM [14C]pentamidine): partially inhibited | Transport by TbNT12.1 (in words) ([3]; Xenopus oocytes): did not mediate the uptake | Transport by TbNT12.2 (in words) [4]: did not mediate the uptake

TbNT11.1 (Trypanosoma brucei brucei TREU927)
Km [13]: 141 µM

O=c1[nH]cnc2nc[nH]c12 [hypoxanthine]
TbNT11.1-mediated uptake of radiolabeled substrate [1]: mediated uptake | Inhibition of [14C]pentamidine uptake by unlabeled nucleobase ([9]; 50 μM [14C]pentamidine): partially inhibited | Transport by TbNT12.1 (in words) ([3]; Xenopus oocytes): did not mediate the uptake | Transport by TbNT12.2 (in words) [4]: did not mediate the uptake | Inhibition of [14C]pentamidine uptake by PFs [5]: did not inhibit

N=C(N)c1ccc(OCCCCCOc2ccc(C(=N)N)cc2)cc1 [pentamidine]
EC50 [2]: 4.8 µM | EC50 [6]: 9.6 µM | Inhibition of hypoxanthine transport by TbNT8.1 [14]: did not significantly inhibit | Uptake of [14C]pentamidine by TbNT11.1 cRNA-injected oocytes ([9]; 50 μM [14C]pentamidine, versus water injected oocytes): much more rapidly than control water injected oocytes | Km ([9]; read-out: Km for pentamidine uptake by TbNT11.1, Xenopus oocytes, 1 h, n=3): 407 ± 119 µM | Vmax for pentamidine uptake by TbNT12.1 ([3]; Xenopus oocytes, n=3): 21.8 ± 6.5 pmol/h/oocyte | Transport by TbNT12.1 (in words) ([3]; Xenopus oocytes): also transport | Transport by TbNT12.2 (in words) [4]: also transport

O=c1cc[nH]c(=O)[nH]1 [uracil]
Inhibition of hypoxanthine uptake by pyrimidine nucleobases [2]: did not inhibit

Oc1ncnc2[nH]ncc12 [allopurinol, 4-hydroxypyrazolo[3,4-d]-pyrimidine-4-one]
TbNT11.1-mediated uptake of radiolabeled substrate [1]: promoted uptake | Ki [2]: 67 µM

Nc1nc2c(ncn2[C@@H]2O[C@H](CO)[C@@H](O)[C@H]2O)c(=O)[nH]1 [guanosine]
Inhibition of [3H]hypoxanthine uptake by nucleosides [2]: failure

Nc1cc[nH]c(=O)n1 [cytosine]
Inhibition of hypoxanthine uptake by pyrimidine nucleobases [2]: did not inhibit

B1: TbNT12.1 (Trypanosoma brucei brucei TREU927) (protein)
chain: T2 sequence (Q57TQ7 1-462)
Km [15]: 161 ± 8 µM
